{"source": "patent US10183015B2", "about": "“Heterocyclic compounds and methods of use” (Medivation Technologies LLC, priority 2015, dated 2019)", "assay_type_in_all_cases": "in vivo", "key": {"[1]": {"test_system": "60% high fat Paigen diet induced NASH mouse model", "assay": "Short-term (21 day) Paigen-diet NASH mouse model: plasma ALT, AST, triglycerides, cholesterol, free fatty acids", "method": "(§1) To investigate whether Compound #37 prevents the development of pathology associated with NASH and steatosis in an acute exploratory disease model, a study was conducted using a diet-induced acute liver steatosis model in mice. As described below, in this study, C57BL/6J mice were initiated on the Paigen diet and simultaneously treated with Compound #37 (5, 20, and 40 mg/kg/day) or vehicle control (20% HPβCD 10 mL/kg/day) by oral gavage for 21 days.\n(§2) After acclimation, 8-week old male C57Bl/6J mice (Charles River) weighing about 25 g were randomized in 4 groups according their body weight and treated once daily around noon by oral gavage with vehicle, or Compound #37 at various for 21 days as follows: Group 1: vehicle-20% (2-hydroxypropyl)-β-cyclodextrin (HP-β-CD) (n=10); Group 2: Compound #37, 5 mg/kg (n=10) Group 3: Compound #37, 20 mg/kg (n=10) Group 4: Compound #37, 40 mg/kg (n=10). During the treatment period, body weight and food intake (measured over 24h) were measured 3 times per week and once a week, respectively. During the acclimation, all mice were fed a standard diet (Special Diets Services RM1 (E), product no. 801492) and tap water ad libitum. After the acclimation period, mice were fed until the end of the experiment with a 60% high fat Paigen diet (60 kcal % fat, 1.25% cholesterol, and 0.5% cholate; D11061901, Research Diet) and tap water ad libitum.\n(§3) One hour after the last dosing (noon), blood was collected by retro-orbital bleeding (maximal volume on EDTA) under isoflurane anesthesia to measure plasma triglycerides, total cholesterol, non-esterified fatty acid, ALT and AST. Mice were then sacrificed by cervical dislocation, and livers were harvested and weighed. Liver samples from the same lobe were dissected, frozen, and analyzed as described below.\nData Analysis. Values are presented as mean±standard error of the mean (sem). To assess the compound effect, treated groups were compared to vehicle with a 1-way ANOVA+Dunnett's post-test. […] For RT-qPCR and score Kruskall-Wallis test was performed with Dunns post-test. For body weight evolution the treated groups were compared to vehicle with a 2-way ANOVA with Bonferroni post-test. For each test, a p<0.05 was considered significant."}, "[2]": {"assay": "Short-term Paigen-diet NASH mouse model: Compound #37 plasma concentration 1 hour after final dose", "conditions": "for concentration at 1 h: male, C57Bl/6J, mouse, plasma, oral", "from_the_text": "as §3, with “After 21 days of treatment, mice were 4-hour fasted (9 am to 1 pm). One” for “One”\nThe Paigen diet in the C57Bl/6J mouse strain typically results in an initial acute weight loss that recovers over time (Hebbard & George, 2011; vendor historical unpublished data). […] Dosing of this group was stopped on day 4 and the surviving mice were sacrificed on day 9, 1 hour after a final dose to analyze drug exposure. […] No mice died in the Compound #37 5 mg/kg/day or vehicle control groups (10 mice each group).\nThe death of animals in the Compound #37 40 mg/kg/day and 20 mg/kg/day groups appears to be related to synergistic weight loss due to a combination of the Paigen diet and the inappetence effects of Compound #37 observed in repeat-dose toxicity studies in rats and dogs. […] Compound #37 mean plasma concentration 1 hour after final dose administration on day 21 was 20.4 μM (±4.33 μM) and 112 μM (±26.0 μM) for the 5 mg/kg and 20 mg/kg groups, respectively. The Compound #37 mean plasma concentration 1 hour after final dose administration for the 4 animals on day 9 in the 40 mg/kg group was 136 μM (±37.1 μM). These exposures at 1 hour after dosing are approximately 2-fold higher than those observed in healthy mice and may be related to altered Compound #37 metabolism in this acute liver injury model."}, "[3]": {"test_system": "SCAP", "assay": "Short-term Paigen-diet NASH mouse model: hepatic SCAP gene expression (RT-qPCR)", "conditions": "liver, 21 days; for DDct: SCAP Dct relative to vehicle mean; for Dct: SCAP minus 18S; for 2DDct: SCAP relative expression to vehicle group, normalized to 18S; for SCAP: raw RT-qPCR value", "method": "as §1, §2\nGene expression analysis. Hepatic expression levels of genes involved in lipid metabolism (FAS, SREBP1, ACC1, SCD1), cholesterol metabolism (HMG-CoAR, LDLR), SREBP proteolysis (SCAP, INSIG1), ER stress (PERK), oxidative stress (NRF2), inflammation (MCP-1), and fibrosis (collagen 1α1) were quantified by RTqPCR. Expression level was normalized to 18S gene expression and relative expression to vehicle group was calculated with the […] method."}, "[4]": {"conditions": "5 mg/kg p.o. daily, 21 days of diet and treatment, group mean"}, "[5]": {"conditions": "5 mg/kg p.o. daily, 21 days of diet and treatment, individual animals"}, "[6]": {"conditions": "20 mg/kg p.o. daily, 21 days of diet and treatment, group mean"}, "[7]": {"conditions": "20 mg/kg p.o. daily, 21 days of diet and treatment, individual animals"}, "[8]": {"conditions": "40 mg/kg p.o. (stopped after 4 administrations), 9 days of diet, group mean"}, "[9]": {"conditions": "40 mg/kg p.o. (stopped after 4 administrations), 9 days of diet, individual animals"}, "[10]": {"conditions": "Compound #37 5 mg/kg, group mean, n=10"}, "[11]": {"conditions": "Compound #37 5 mg/kg, individual animals, 5 mg/kg"}, "[12]": {"conditions": "Compound #37 20 mg/kg, group mean, n=6"}, "[13]": {"conditions": "Compound #37 20 mg/kg, individual animals, 20 mg/kg"}}, "note": "Where “and” joins values, the source holds several entries; their conditions need not be identical. Equal entries are not always repeated.", "data": [{"compound": "CC(C)Cc1cc(-c2nc(-c3ccc(NS(=O)(=O)C(F)(F)F)cc3Cl)cs2)ccn1", "note": "[Compound 37, N-(3-chloro-4-(2-(2-isobutylpyridin-4-yl)thiazol-4-yl)phenyl)-1,1,1-trifluoromethanesulfonamide]", "values": [{"measurement": "ALT (U/L)", "setting": "[1]; [4]", "value": 419.3, "unit": "U/L"}, {"measurement": "AST (U/L)", "setting": "[1]; [4]", "value": 449.4, "unit": "U/L"}, {"measurement": "AST/ALT ratio", "setting": "[1]; [4]", "value": 1.2}, {"measurement": "ALT (U/L)", "setting": "[1]; [5]", "value": "382 U/L and 620 U/L and 346 U/L and 825 U/L and 267 U/L and 246 U/L and 255 U/L and 447 U/L and 435 U/L and 370 U/L"}, {"measurement": "AST (U/L)", "setting": "[1]; [5]", "value": "350 U/L and 416 U/L and 710 U/L and 405 U/L and 286 U/L and 392 U/L and 481 U/L and 528 U/L and 477 U/L"}, {"measurement": "AST/ALT ratio", "setting": "[1]; [5]", "value": "0.92 and 1.20 and 0.86 and 1.52 and 1.16 and 1.54 and 1.08 and 1.21 and 1.29"}, {"measurement": "ALT (U/L)", "setting": "[1]; [6]", "value": 403.5, "unit": "U/L"}, {"measurement": "AST (U/L)", "setting": "[1]; [6]", "value": 431.2, "unit": "U/L"}, {"measurement": "AST/ALT ratio", "setting": "[1]; [6]", "value": 1.1}, {"measurement": "ALT (U/L)", "setting": "[1]; [7]", "value": "266 U/L and 587 U/L and 432 U/L and 413 U/L and 385 U/L and 338 U/L"}, {"measurement": "AST (U/L)", "setting": "[1]; [7]", "value": "362 U/L and 467 U/L and 344 U/L and 615 U/L and 424 U/L and 375 U/L"}, {"measurement": "AST/ALT ratio", "setting": "[1]; [7]", "value": "1.36 and 0.80 (2×) and 1.49 and 1.10 and 1.11"}, {"measurement": "ALT (U/L)", "setting": "[1]; [8]", "value": 7043.8, "unit": "U/L"}, {"measurement": "AST (U/L)", "setting": "[1]; [8]", "value": 2685.0, "unit": "U/L"}, {"measurement": "AST/ALT ratio", "setting": "[1]; [8]", "value": 0.8}, {"measurement": "ALT (U/L)", "setting": "[1]; [9]", "value": "1095 U/L and 1160 U/L and 12560 U/L and 13360 U/L"}, {"measurement": "AST (U/L)", "setting": "[1]; [9]", "value": "1165 U/L and 1555 U/L and 3900 U/L and 4120 U/L"}, {"measurement": "AST/ALT ratio", "setting": "[1]; [9]", "value": "1.1 and 1.3 and 0.3 (2×)"}, {"measurement": "mean AST and ALT", "setting": "[1]; 40 mg/kg, 4 surviving animals, sacrifice on day 9", "value": "> 2500", "unit": "U/L"}, {"measurement": "ALT and AST levels", "setting": "[1]; 40 mg/kg, day 9", "value": "very high"}, {"measurement": "ALT (U/L) Mean", "setting": "[1]; Table B7, 5 mg/kg", "value": 419.30, "unit": "U/L"}, {"measurement": "AST (U/L) Mean", "setting": "[1]; Table B7, 5 mg/kg", "value": 449.44, "unit": "U/L"}, {"measurement": "ALT (U/L) Mean", "setting": "[1]; Table B7, 20 mg/kg", "value": 403.50, "unit": "U/L"}, {"measurement": "AST (U/L) Mean", "setting": "[1]; Table B7, 20 mg/kg", "value": 431.17, "unit": "U/L"}, {"measurement": "exposure at 1 hour after dosing relative to healthy mice", "setting": "[2]; acute liver injury model vs healthy mice", "value": "approximately 2 fold"}, {"measurement": "concentration at 1 h", "setting": "[2]; 5 mg/kg, day 21", "value": 20.4, "unit": "µM"}, {"measurement": "concentration at 1 h", "setting": "[2]; 20 mg/kg, day 21", "value": 112, "unit": "µM"}, {"measurement": "concentration at 1 h", "setting": "[2]; 40 mg/kg, day 9, 4 animals", "value": 136, "unit": "µM"}, {"measurement": "DDct", "setting": "[3]; [10]", "value": 0.19}, {"measurement": "DDct", "setting": "[3]; [11]", "value": "−0.7 and 0.72 and −0.1 and −0.18 and 1.21 and 0.7 and 0.27 and −0.21 and −0.02 and 0.17"}, {"measurement": "DDct", "setting": "[3]; [12]", "value": 0.07}, {"measurement": "DDct", "setting": "[3]; [13]", "value": "0.6 and 0.83 and 0.33 and −1.29 and 0.9 and −0.94"}, {"measurement": "Dct", "setting": "[3]; [10]", "value": 12.8}, {"measurement": "Dct", "setting": "[3]; [11]", "value": "11.96 and 13.38 and 12.56 and 12.48 and 13.87 and 13.36 and 12.93 and 12.45 and 12.64 and 12.83"}, {"measurement": "Dct", "setting": "[3]; [12]", "value": 12.7}, {"measurement": "Dct", "setting": "[3]; [13]", "value": "13.26 and 13.49 and 12.99 and 11.37 and 13.56 and 11.72"}, {"measurement": "2DDct", "setting": "[3]; [10]", "value": 0.94}, {"measurement": "2DDct", "setting": "[3]; [11]", "value": "1.62 and 0.61 and 1.07 and 1.13 and 0.43 and 0.62 and 0.83 and 1.16 and 1.01 and 0.89"}, {"measurement": "2DDct", "setting": "[3]; [12]", "value": 1.15}, {"measurement": "2DDct", "setting": "[3]; [13]", "value": "0.66 and 0.56 and 0.79 and 2.44 and 0.54 and 1.92"}, {"measurement": "SCAP", "setting": "[3]; [10]", "value": 25.1}, {"measurement": "SCAP", "setting": "[3]; [11]", "value": "25.42 and 26.49 and 24.17 and 25.83 and 25.9 and 26.71 and 24.53 and 24.24 and 23.78 and 23.95"}, {"measurement": "SCAP", "setting": "[3]; [12]", "value": 24.9}, {"measurement": "SCAP", "setting": "[3]; [13]", "value": "26.17 and 25.78 and 25.19 and 24.4 and 25.05 and 22.98"}]}]}
